Measurements taken from ChEMBL document CHEMBL3817786, “An Unusual Natural Product Primary Sulfonamide: Synthesis, Carbonic Anhydrase Inhibition, and Protein X-ray Structures of Psammaplin C” (J Med Chem, 2016).

Assays:
[1] = biological target: Carbonic anhydrase 6 (Homo sapiens, UniProt P23280); test: Inhibition of human recombinant carbonic anhydrase 6 expressed in Escherichia coli BL21 (DE3) by stopped-flow CO2 hydration assay
[2] = biological target: Carbonic anhydrase 14 (Homo sapiens, UniProt Q9ULX7); test: Inhibition of human recombinant carbonic anhydrase 14 expressed in Escherichia coli BL21 (DE3) by stopped-flow CO2 hydration assay
[3] = biological target: Carbonic anhydrase 13 (Homo sapiens, UniProt Q8N1Q1); test: Inhibition of human recombinant carbonic anhydrase 13 expressed in Escherichia coli BL21 (DE3) by stopped-flow CO2 hydration assay
[4] = biological target: Carbonic anhydrase 5A, mitochondrial (Homo sapiens, UniProt P35218); test: Inhibition of human recombinant carbonic anhydrase 5A expressed in Escherichia coli BL21 (DE3) by stopped-flow CO2 hydration assay
[5] = biological target: Carbonic anhydrase 7 (Homo sapiens, UniProt P43166); test: Inhibition of human recombinant carbonic anhydrase 7 expressed in Escherichia coli BL21 (DE3) by stopped-flow CO2 hydration assay
[6] = biological target: Carbonic anhydrase 4 (Homo sapiens, UniProt P22748); test: Inhibition of human recombinant carbonic anhydrase 4 expressed in Escherichia coli BL21 (DE3) by stopped-flow CO2 hydration assay
Sequence of Carbonic anhydrase 4 (P22748 whole entry): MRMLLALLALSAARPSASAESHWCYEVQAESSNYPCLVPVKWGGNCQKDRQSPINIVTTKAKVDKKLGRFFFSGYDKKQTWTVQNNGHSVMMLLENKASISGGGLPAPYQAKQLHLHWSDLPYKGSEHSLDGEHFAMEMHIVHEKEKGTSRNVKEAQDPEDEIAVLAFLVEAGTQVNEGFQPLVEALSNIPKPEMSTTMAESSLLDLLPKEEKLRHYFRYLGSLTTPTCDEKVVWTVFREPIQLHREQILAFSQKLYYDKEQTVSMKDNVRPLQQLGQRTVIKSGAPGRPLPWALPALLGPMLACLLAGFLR

Sequence of Carbonic anhydrase 6 (P23280 whole entry): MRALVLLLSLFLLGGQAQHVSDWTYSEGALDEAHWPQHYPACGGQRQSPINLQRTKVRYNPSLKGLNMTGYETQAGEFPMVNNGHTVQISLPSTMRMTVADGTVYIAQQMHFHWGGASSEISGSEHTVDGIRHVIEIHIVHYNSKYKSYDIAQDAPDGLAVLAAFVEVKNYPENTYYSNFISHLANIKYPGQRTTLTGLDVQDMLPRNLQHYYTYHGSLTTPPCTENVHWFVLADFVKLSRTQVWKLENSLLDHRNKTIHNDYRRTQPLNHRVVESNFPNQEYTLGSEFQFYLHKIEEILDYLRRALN
Sequence of Carbonic anhydrase 7 (P43166 whole entry): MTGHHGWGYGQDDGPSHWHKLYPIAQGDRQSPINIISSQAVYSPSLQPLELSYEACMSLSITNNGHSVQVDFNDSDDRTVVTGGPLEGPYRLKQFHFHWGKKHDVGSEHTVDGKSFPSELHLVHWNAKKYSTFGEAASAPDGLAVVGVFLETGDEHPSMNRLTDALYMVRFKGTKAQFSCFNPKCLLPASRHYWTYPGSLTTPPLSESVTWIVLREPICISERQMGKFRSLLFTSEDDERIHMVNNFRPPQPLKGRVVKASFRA
Sequence of Carbonic anhydrase 13 (Q8N1Q1 whole entry): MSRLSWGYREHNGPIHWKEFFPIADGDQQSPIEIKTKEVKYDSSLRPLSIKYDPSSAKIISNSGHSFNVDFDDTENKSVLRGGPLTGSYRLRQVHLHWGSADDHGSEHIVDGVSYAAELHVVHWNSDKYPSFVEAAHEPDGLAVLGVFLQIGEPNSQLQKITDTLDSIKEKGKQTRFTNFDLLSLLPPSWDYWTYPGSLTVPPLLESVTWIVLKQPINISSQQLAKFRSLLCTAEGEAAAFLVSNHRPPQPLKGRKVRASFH
Sequence of Carbonic anhydrase 5A, mitochondrial (P35218 whole entry): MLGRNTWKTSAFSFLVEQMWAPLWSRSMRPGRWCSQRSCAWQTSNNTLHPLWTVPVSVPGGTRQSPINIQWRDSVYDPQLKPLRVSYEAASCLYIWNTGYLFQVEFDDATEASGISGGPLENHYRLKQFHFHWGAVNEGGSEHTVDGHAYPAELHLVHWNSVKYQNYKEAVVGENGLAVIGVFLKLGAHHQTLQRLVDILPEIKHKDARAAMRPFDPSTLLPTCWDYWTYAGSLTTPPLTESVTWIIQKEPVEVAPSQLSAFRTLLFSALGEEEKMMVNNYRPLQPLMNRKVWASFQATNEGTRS
Sequence of Carbonic anhydrase 14 (Q9ULX7 whole entry): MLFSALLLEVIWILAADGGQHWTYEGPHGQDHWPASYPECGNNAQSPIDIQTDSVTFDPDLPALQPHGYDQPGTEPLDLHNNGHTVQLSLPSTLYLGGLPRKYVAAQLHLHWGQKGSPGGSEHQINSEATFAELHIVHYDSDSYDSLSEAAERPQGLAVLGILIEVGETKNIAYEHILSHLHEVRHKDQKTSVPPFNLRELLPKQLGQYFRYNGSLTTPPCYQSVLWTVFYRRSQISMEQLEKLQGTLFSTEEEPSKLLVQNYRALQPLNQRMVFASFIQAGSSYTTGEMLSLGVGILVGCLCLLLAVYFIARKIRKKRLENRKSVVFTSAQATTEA

NS(=O)(=O)CCNC(=O)/C(Cc1ccc(O)c(Br)c1)=N/O gave a Ki [1] of 9680 nM, a Ki [2] of 379 nM and a Ki [3] of 10600 nM. It also gave a Ki [4] of 154 nM, a Ki [5] of 1.7 nM and a Ki [6] of 75.3 nM.
